Key:
STAT6 = target: T1, STAT6 (Homo sapiens, UniProt P42226); test: Stat6 Degrader Assay (HiBiT based, HeLa LgBiT clone 4.14); assay type: cell-based; details: HeLa LgBiT clone 4.14 HiBiT-STAT6, 4-24 h incubation; values given for compounds with >80% Emax; geometric mean; read-out: STAT6 degradation DC50
T1 construct: These cells express endogenous STAT6; host or cells: HeLa LgBiT clone 4.14
T1 sequence (P42226 1-847): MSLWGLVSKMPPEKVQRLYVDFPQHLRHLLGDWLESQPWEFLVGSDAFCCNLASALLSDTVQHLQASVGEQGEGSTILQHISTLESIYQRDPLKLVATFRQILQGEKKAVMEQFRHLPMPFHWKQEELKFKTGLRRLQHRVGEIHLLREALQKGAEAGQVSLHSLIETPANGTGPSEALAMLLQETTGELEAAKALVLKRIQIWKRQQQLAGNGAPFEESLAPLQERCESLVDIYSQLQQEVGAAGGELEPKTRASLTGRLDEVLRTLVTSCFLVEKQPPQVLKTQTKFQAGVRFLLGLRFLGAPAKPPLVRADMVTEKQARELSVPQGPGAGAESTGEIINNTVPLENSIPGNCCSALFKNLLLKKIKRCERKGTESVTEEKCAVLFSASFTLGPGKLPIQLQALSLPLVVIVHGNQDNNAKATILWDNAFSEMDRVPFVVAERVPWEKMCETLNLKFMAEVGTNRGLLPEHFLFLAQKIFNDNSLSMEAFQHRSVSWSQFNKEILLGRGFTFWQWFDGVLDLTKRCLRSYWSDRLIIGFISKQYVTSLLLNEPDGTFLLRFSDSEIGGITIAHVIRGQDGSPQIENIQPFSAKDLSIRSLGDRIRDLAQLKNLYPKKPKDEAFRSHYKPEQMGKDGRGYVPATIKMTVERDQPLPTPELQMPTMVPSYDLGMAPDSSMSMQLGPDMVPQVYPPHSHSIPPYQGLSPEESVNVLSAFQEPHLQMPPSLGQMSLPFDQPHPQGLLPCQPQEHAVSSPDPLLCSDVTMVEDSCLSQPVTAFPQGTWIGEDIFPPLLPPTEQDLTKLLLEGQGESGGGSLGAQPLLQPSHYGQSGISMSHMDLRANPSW
Outline: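 HeLa LgBiT clone 4.14 cells with CRISPR HiBiT-tagged endogenous STAT6, 5000 cells/well, compound dosed then incubated 4-24 h at 37° C, 5% CO2. Nano-Glo substrate added, 0.5 h, luminescence read as non-degraded STAT6. Terfenadine 50 μM (cell kill) defines 100% degradation.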

[1] = tested on: Eotaxin-3 release in human whole blood stimulated with IL-4; test: Human Whole Blood Eotaxin-3 Assay (IL-4 stimulated eotaxin-3 release); assay type: cell-based; details: IL-4 stimulation, 48 h, values given for compounds with >80% Emax, geometric mean
Outline: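 Lithium-heparin human whole blood preincubated 2 h at 37° C with 4-fold serially diluted compounds (0.5% DMSO), then stimulated with recombinant human IL-4 ([…]) for 48 h. Eotaxin-3 (CCL26) in supernatant quantified by MSD immunoassay.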

| Structure (SMILES) | DC50 (STAT6) | EC50 [1] |
| --- | --- | --- |
| CNc1cc(=O)n(-c2ccnc3c2cc(CN2CC=C(c4c(F)cc(C(=O)N5CCC(CN6CCN(Cc7ccc8c(c7)n(C7CC7)c(=O)n8[C@@H]7CCC(=O)NC7=O)C[C@@H]6C)CC5)cc4F)CC2)n3C)cc1F (single isomer, unassigned) [Example 3u215] | 3.5 nM | 5.6 nM |
| CNc1ccn(-c2ccnc3c2cc(CN2CCC(c4c(F)cc(C(=O)N5CCC(CN6CCN(Cc7ccc8c(c7)n(C7CC7)c(=O)n8[C@H]7CCC(=O)NC7=O)C[C@@H]6C)CC5)cc4F)CC2)n3C)c(=O)c1 (single isomer, unassigned) [Example 3u217] | 1.8 nM | 0.6 nM |
| CNc1ccn(-c2ccnc3c2cc(CN2CCC(c4c(F)cc(C(=O)N5CCC(CN6CCN(Cc7ccc8c(c7)n(C7CC7)c(=O)n8[C@@H]7CCC(=O)NC7=O)C[C@@H]6C)CC5)cc4F)CC2)n3C)c(=O)c1 (single isomer, unassigned) [Example 3u218] | 2.6 nM | 0.8 nM |
| CNc1cc(=O)n(-c2ccnc3c2cc(CN2CCC(c4c(F)cc(C(=O)N5CCC(CN6CCN(Cc7ccc8c(c7)C7(CC7)C(=O)N8[C@H]7CCC(=O)NC7=O)C[C@@H]6C)CC5)cc4F)CC2)n3C)cc1F (single isomer, unassigned) [Example 3u220] | 1.3 nM | 2.4 nM |
| CNc1cc(=O)n(-c2ccnc3c2cc(CN2CCC(c4c(F)cc(C(=O)N5CCC(CN6CCN(Cc7ccc8c(c7)C7(CC7)C(=O)N8[C@@H]7CCC(=O)NC7=O)C[C@@H]6C)CC5)cc4F)CC2)n3C)cc1F (single isomer, unassigned) [Example 3u221] | 1.9 nM | 4.5 nM |
| CNc1ccn(-c2ccnc3c2cc(CN2CCC(c4c(F)cc(C(=O)N5CCC(CN6CCN(Cc7ccc8c(c7)C7(CC7)C(=O)N8[C@H]7CCC(=O)NC7=O)C[C@@H]6C)CC5)cc4F)CC2)n3C)c(=O)c1 (single isomer, unassigned) [Example 3u223] | 0.9 nM | 1.3 nM |
| CNc1ccn(-c2ccnc3c2cc(CN2CCC(c4c(F)cc(C(=O)N5CCC(CN6CCN(Cc7ccc8c(c7)C7(CC7)C(=O)N8[C@@H]7CCC(=O)NC7=O)C[C@@H]6C)CC5)cc4F)CC2)n3C)c(=O)c1 (single isomer, unassigned) [Example 3u224] | 1.3 nM | 1.5 nM |
| CNc1ccn(-c2ccnc3c2cc([C@H](C)N2CC=C(c4c(C)cc(C(=O)N(C)c5ccc(C6CCN(Cc7ccc8c(c7)n(C)c(=O)n8[C@H]7CCC(=O)NC7=O)CC6)cc5)cc4F)CC2)n3C)c(=O)c1 (single isomer, unassigned) [Example 3u226] | 0.05 nM | 0.2 nM |
| CNc1ccn(-c2ccnc3c2cc([C@H](C)N2CC=C(c4c(C)cc(C(=O)N(C)c5ccc(C6CCN(Cc7ccc8c(c7)n(C)c(=O)n8[C@@H]7CCC(=O)NC7=O)CC6)cc5)cc4F)CC2)n3C)c(=O)c1 (single isomer, unassigned) [Example 3u227] | 0.04 nM | 0.3 nM |
| CNc1ccn(-c2ccnc3c2cc(CN2CC=C(c4c(C)cc(C(=O)N(C)c5ccc(C6CCN(Cc7ccc8c(c7)C(C)(C)C(=O)N8[C@H]7CCC(=O)NC7=O)CC6)cc5)cc4F)CC2)n3C)c(=O)c1 (single isomer, unassigned) [Example 3u229] | 0.3 nM | 1.6 nM |
| CNc1ccn(-c2ccnc3c2cc(CN2CC=C(c4c(C)cc(C(=O)N(C)c5ccc(C6CCN(Cc7ccc8c(c7)C(C)(C)C(=O)N8[C@@H]7CCC(=O)NC7=O)CC6)cc5)cc4F)CC2)n3C)c(=O)c1 (single isomer, unassigned) [Example 3u230] | 0.4 nM | 2 nM |

Next, values leading:

| DC50 (STAT6) | EC50 [1] | Structure (SMILES) |
| --- | --- | --- |
| 0.1 nM | 1.4 nM | CNc1cc(=O)n(-c2ccnc3c2cc([C@H](C)N2CC=C(c4c(C)cc(C(=O)N(C)c5ccc(C6CCN(Cc7ccc8c(c7)C(C)(C)C(=O)N8[C@@H]7CCC(=O)NC7=O)CC6)cc5)cc4F)CC2)n3C)cc1F (single isomer, unassigned) [Example 3u235] |
| 0.2 nM | 0.2 nM | CNc1cc(=O)n(-c2ccnc3c2cc([C@H](C)N2CC=C(c4c(C)cc(C(=O)N(C)c5ccc(N6CCC(Cc7ccc8c(c7)n(C)c(=O)n8[C@H]7CCC(=O)NC7=O)CC6)nc5)cc4F)CC2)n3C)cc1F (single isomer, unassigned) [Example 3u242] |
| 0.3 nM | 0.4 nM | CNc1cc(=O)n(-c2ccnc3c2cc([C@H](C)N2CC=C(c4c(C)cc(C(=O)N(C)c5ccc(N6CCC(Cc7ccc8c(c7)n(C)c(=O)n8[C@@H]7CCC(=O)NC7=O)CC6)nc5)cc4F)CC2)n3C)cc1F (single isomer, unassigned) [Example 3u243] |
| 1.4 nM | 1.7 nM | CNc1ccn(-c2ccnc3c2cc([C@H](C)N2CC=C(c4c(C)cc(C(=O)N5CCC(CN6CCN(c7ccc8c(c7)n(C7CC7)c(=O)n8[C@H]7CCC(=O)NC7=O)CC6)CC5)cc4F)CC2)n3C)c(=O)c1 (single isomer, unassigned) [Example 3u279] |
| 4 nM | 4.2 nM | CNc1ccn(-c2ccnc3c2cc([C@H](C)N2CC=C(c4c(C)cc(C(=O)N5CCC(CN6CCN(c7ccc8c(c7)C(C)(C)C(=O)N8[C@@H]7CCC(=O)NC7=O)CC6)CC5)cc4F)CC2)n3C)c(=O)c1 (single isomer, unassigned) [Example 3u281] |
| 7.8 nM | 101 nM | CNc1cc(=O)n(-c2ccnc3c2cc([C@H](C)N2CC=C(c4c(C)cc(C(=O)N5CCC(CN6CCN(c7ccc8c(c7)C(C)(C)C(=O)N8[C@H]7CCC(=O)NC7=O)CC6)CC5)cc4F)CC2)n3C)cc1F (single isomer, unassigned) [Example 3u285] |
| 12.5 nM | 25.2 nM | CNc1cc(=O)n(-c2ccnc3c2cc([C@H](C)N2CC=C(c4c(C)cc(C(=O)N5CCC(CN6CCN(c7ccc8c(c7)C(C)(C)C(=O)N8[C@@H]7CCC(=O)NC7=O)CC6)CC5)cc4F)CC2)n3C)cc1F (single isomer, unassigned) [Example 3u286] |
| 5.7 nM | 21.7 nM | CNc1cc(=O)n(-c2ccnc3c2cc([C@H](C)N2CC=C(c4c(C)cc(C(=O)N5CCC(CN6CCN(c7ccc8c(c7)C7(CC7)C(=O)N8[C@H]7CCC(=O)NC7=O)CC6)CC5)cc4F)CC2)n3C)cc1F (single isomer, unassigned) [Example 3u291] |
| 5.1 nM | 6.9 nM | CNc1cc(=O)n(-c2ccnc3c2cc([C@H](C)N2CC=C(c4c(C)cc(C(=O)N5CCC(CN6CCN(c7ccc8c(c7)C7(CC7)C(=O)N8[C@@H]7CCC(=O)NC7=O)CC6)CC5)cc4F)CC2)n3C)cc1F (single isomer, unassigned) [Example 3u292] |
| 1 nM | 0.8 nM | CNc1ccn(-c2ccnc3c2cc([C@H](C)N2CC=C(c4c(C)cc(C(=O)N5CCC(CN6CCN(c7ccc8c(c7)n(C)c(=O)n8[C@H]7CCC(=O)NC7=O)CC6)CC5)cc4F)CC2)n3C)c(=O)c1 (single isomer, unassigned) [Example 3u293] |
| 0.8 nM | 0.3 nM | CNc1ccn(-c2ccnc3c2cc([C@H](C)N2CC=C(c4c(C)cc(C(=O)N5CCC(CN6CCN(c7ccc8c(c7)n(C)c(=O)n8[C@@H]7CCC(=O)NC7=O)CC6)CC5)cc4F)CC2)n3C)c(=O)c1 (single isomer, unassigned) [Example 3u294] |
| 2.7 nM | 5.8 nM | CNc1cc(=O)n(-c2ccnc3c2cc([C@H](C)N2CC=C(c4c(C)cc(C(=O)N5CCC(CN6CCN(c7ccc8c(c7)n(C)c(=O)n8[C@H]7CCC(=O)NC7=O)CC6)CC5)cc4F)CC2)n3C)cc1F (single isomer, unassigned) [Example 3u296] |
| 2.2 nM | 3.2 nM | CNc1cc(=O)n(-c2ccnc3c2cc([C@H](C)N2CC=C(c4c(C)cc(C(=O)N5CCC(CN6CCN(c7ccc8c(c7)n(C)c(=O)n8[C@@H]7CCC(=O)NC7=O)CC6)CC5)cc4F)CC2)n3C)cc1F (single isomer, unassigned) [Example 3u297] |
| 1.4 nM | 1.1 nM | CNc1ccn(-c2ccnc3c2cc([C@H](C)N2CC=C(c4c(C)cc(C(=O)N5CCC(CN6CCN(c7cc8c(cc7F)n([C@H]7CCC(=O)NC7=O)c(=O)n8C)CC6)CC5)cc4F)CC2)n3C)c(=O)c1 (single isomer, unassigned) [Example 3u307] |
| 0.7 nM | 1.3 nM | CNc1ccn(-c2ccnc3c2cc([C@H](C)N2CC=C(c4c(C)cc(C(=O)N5CCC(CN6CCN(c7cc8c(cc7F)n([C@@H]7CCC(=O)NC7=O)c(=O)n8C)CC6)CC5)cc4F)CC2)n3C)c(=O)c1 (single isomer, unassigned) [Example 3u308] |

— patent US20250320206A1, “STAT6 DEGRADERS” (Gilead Sciences, Inc., priority 2024, published 2025)
